4 molecules from patent US20090317436A1, “COMPUTER DEVICES AND ACCESSORIES” (priority 2006, published 2009) can be followed below.

Common to all, as to assay type: cell-based
Test [1] has as its system Staphylococcus aureus NCTC 6571. As to the kind of experiment: Lethal photosensitization of S. aureus by photosensitizer-gold nanoparticle mixtures (Examples 2-8, Table 2), viable counting. Particulars: for effect of diluting the gold nanoparticles on killing of S. aureus: 2 nm gold nanoparticles; for enhancement of lethal photosensitization compared with TB in the absence of nanogold: 15 nm nanogold. As for the experimental part: Gold nanoparticles of approximately 15 nm in diameter (batches NN1 and NN2 above) were mixed with an equal volume of aqueous toluidine blue O (TB) and left at room temperature for 15 minutes. TB was used at a final concentration of 1, 5, 10, 20 or 50 μM.
100 μl of the TB-gold mixture was added to 100 μl of a suspension of Staphylococcus aureus NCTC 6571 in phosphate buffered saline (PBS) (adjusted to an optical density of 0.05), and samples were irradiated with a fluorescent white light (28 W) for 10 minutes. S. aureus+TB only, and S. aureus+PBS, without photosensitizer or nanogold were used as controls. The final concentration of nanogold used was 1×10^15 particles/ml.
After irradiation, the numbers of surviving bacteria were enumerated by viable counting.
The method of Example 2 was repeated using gold nanoparticles of 2 nm diameter (British Biocell International). The final concentration of nanogold used was 4×10^13 particles/ml. TB was used at a final concentration of 10, 20 or 50 μM.
Experiments were performed as for Example 3, with the following modifications: Prior to mixing with the photosensitizer, the gold nanoparticles were either left undiluted, or diluted 1 in 10 or 1 in 100 in sterile, distilled water. The nanoparticles were then added to TB (final concentration 20 μM).
The samples were then illuminated for 30 seconds using a fibre optic white light source (Schott KL200). The surviving bacteria were enumerated by viable counting as before.
Example 4 was repeated using methylene blue (MB; 20 μM) as the photosensitizer.
Example 5 was repeated using 2 nm gold nanoparticles (British Biocell International).
Example 6 was repeated using tin chlorin e6 (SnCe6; 20 μg/ml) as the photosensitizer. The illumination time was 10 minutes. […]

For test [2] the test system is unchanged. Nature of the test: Lethal photosensitization of S. aureus using TBO-tiopronin-gold nanoparticle conjugate (Examples 2-5, Table 3). Particulars: Example 4, any length of time.
Test [3] has the same test system. Nature of the test: Lethal photosensitization of S. aureus by photosensitizer-gold nanoparticle mixtures (Examples 2-8, Table 2), viable counting. Particulars: Example 2.
Test [4] shares this test system. Nature of the test: Lethal photosensitization of S. aureus by toluidine blue/gold nanoparticle mixture (Example 1), viable counting. Here is the method:
Gold nanoparticles (2.0 nm diameter; British Biocell International) in water (15×10^13 particles per ml) were mixed with an equal volume of an aqueous solution of toluidine blue O (40 μM) and left at room temperature for 15 minutes. 100 μl of the gold-TB solution was added to 100 μl of a suspension of Staphylococcus aureus NCTC 6571 in phosphate buffered saline (PBS) and this was irradiated with white light from an 18 W fluorescent white lamp for 10 minutes. Controls consisted of: • (i) TB (final concentration=10 μM) and bacteria, irradiated for the same period of time, • (ii) nanogold (diluted 1:1 with water) and bacteria, irradiated for the same period of time, • (iii) bacteria without TB or nanogold, not irradiated (“control”).
After irradiation, the number of surviving bacteria was determined by viable counting.

The test system is the same in test [5]. Nature of the test: Lethal photosensitization of S. aureus using a different TBO-tiopronin-gold nanoparticle conjugate (Examples 6-7, Table 4). Particulars: white light 30 mins; free TBO control.

Consider `C=CC1=C(C)C2=CC3=NC(=C(CC(=O)[O-])C4=NC(=C(C)C4=C([O-])[O-])C=c4[n-]c(c(C)c4CC)=CC1=N2)C(CCC(=O)[O-])C3C.[H+].[Sn+4]` (stereo not shown) [Tin chlorine6, tin chlorin e6], for which the “effectiveness of combination against Staphylococcus aureus” value (“effectiveness of combination” for short) in test [1] (20 mg/ml with 2 nm gold nanoparticles at 4×10^11 particles/ml) was “particularly effective”. Also, the “effect of diluting the gold nanoparticles on killing of S. aureus” value in test [1] (Example 7, SnCe6 20 μg/ml, illumination 10 minutes) is “enhanced the killing of S. aureus”. Also, the “Result (% kill class)” value in test [1] (Example 7, photosensitiser 20 m/ml, gold nanoparticles 2 nm, 4 × 10^11 particles/ml, illumination 10 minutes) is “*** (95-99% kill)”; in test [1] (Example 7, photosensitiser 20 m/ml, gold nanoparticles 2 nm, 4 × 10^12 particles/ml, illumination 10 minutes) it was “** (90-95% kill)”; in test [1] (Example 7, photosensitiser 20 m/ml, gold nanoparticles 2 nm, 4 × 10^13 particles/ml, illumination 10 minutes), “— (less than 50% kill)”.
In the case of nile blue sulphate, the “effectiveness of combination” value in test [1] (20 to 50 mM with 2 nm gold nanoparticles at 4×10^13 particles/ml) is listed as “particularly effective”. Also, the “Result (% kill class)” value in test [1] (Example 8, photosensitiser 10 mM, gold nanoparticles 2 nm, 4 × 10^13 particles/ml, illuminated 30 minutes) was “*** (95-99% kill)”; in test [1] (Example 8, photosensitiser 20 mM, gold nanoparticles 2 nm, 4 × 10^13 particles/ml, illuminated 30 minutes), “**** (99-100% kill)”; in test [1] (Example 8, photosensitiser 50 mM, gold nanoparticles 2 nm, 4 × 10^13 particles/ml, illuminated 30 minutes), “**** (99-100% kill)”.
For the molecule `Cc1cc2nc3ccc(N(C)C)cc3[s+]c2cc1N.[Cl-]` [Toluidine blue, toluidine blue O], the “effect when irradiated with white light” value in test [2] is on record as “no effect”. The “Result (% kill class)” value in test [3] (photosensitiser 100 mM, gold nanoparticles 15 nm, 1 × 10^15 particles/ml, fluorescent white light (28 W) 10 minutes) is on record as “** (90-95% kill)”; in test [1] (Example 2, photosensitiser 1 mM, gold nanoparticles 15 nm, 1 × 10^15 particles/ml, fluorescent white light (28 W) 10 minutes) it was “— (less than 50% kill)”; in test [1] (Example 2, photosensitiser 5 mM, gold nanoparticles 15 nm, 1 × 10^15 particles/ml, fluorescent white light (28 W) 10 minutes) it was “* (50-90% kill)”; in test [1] (Example 2, photosensitiser 20 mM, gold nanoparticles 15 nm, 1 × 10^15 particles/ml, fluorescent white light (28 W) 10 minutes), “**** (99-100% kill)”; in test [1] (Example 2, photosensitiser 50 mM, gold nanoparticles 15 nm, 1 × 10^15 particles/ml, fluorescent white light (28 W) 10 minutes) it was “**** (99-100% kill)”; in test [1] (Example 3, photosensitiser 10 mM, gold nanoparticles 2 nm, 4 × 10^13 particles/ml, fluorescent white light (28 W) 10 minutes), “* (50-90% kill)”. Also, the “Result (% kill class)” value was “**** (99-100% kill)” in test [1] (Example 3, photosensitiser 20 mM, gold nanoparticles 2 nm, 4 × 10^13 particles/ml, fluorescent white light (28 W) 10 minutes); “* (50-90% kill)” in test [1] (Example 3, photosensitiser 50 mM, gold nanoparticles 2 nm, 4 × 10^13 particles/ml, fluorescent white light (28 W) 10 minutes); “**** (99-100% kill)” in test [1] (Example 4, photosensitiser 20 mM, gold nanoparticles 15 nm, 1 × 10^14 particles/ml, fibre optic white light 30 seconds); “*** (95-99% kill)” in test [1] (Example 4, photosensitiser 20 mM, gold nanoparticles 15 nm, 1 × 10^15 particles/ml, fibre optic white light 30 seconds). The “enhancement of lethal photosensitization” value in test [3] (with nanogold, TB 10 or 100 μM) is recorded as “little enhancement”; in test [1] (2 nm nanogold particles, 10 μM or 50 μM TB) it was “not when either 10 μM or 50 μM TB was used”; in test [1] (2 nm nanogold particles, 20 μM TB), “enhancement of lethal photosensitization was evident”; in test [1] (Example 2, with nanogold, TB 20 and 50 μM), “enhancement was greatest”. In addition, the “effectiveness of combination” value in test [1] (20 mM with 2 nm gold nanoparticles at 4×10^13 particles/ml) and in test [1] (20 to 50 mM with 15 nm gold nanoparticles at 1×10^14 to 1×10^15 particles/ml) was “particularly effective” in each case. The “enhancement of lethal photosensitization compared with TB in the absence of nanogold” value in test [1] (TB 1 μM) is recorded as “little enhancement”; in test [1] (TB 5, 10 and 20 μM), “enhancement was evident”; in test [1] (TB 10 and 20 μM) it was “Enhancement was greatest”. In addition, the “enhancement compared with undiluted nanogold” value in test [1] (Example 4, TB 20 μM, nanoparticles diluted 1 in 10, white light 30 seconds) is listed as “greater enhancement”. Besides, the “% Kill” value in test [4] (18 W fluorescent white lamp 10 minutes, TB final 10 μM, 2.0 nm gold nanoparticles) came to 93.7%. Also, in test [4] (preliminary experiments, 30 minutes light exposure), the “kill of the bacterial suspensions” value was “total kills”. Also, the “S. aureus (cfu/ml)” value in test [4] (surviving bacteria after 18 W fluorescent white lamp 10 minutes, TB final 10 μM, 2.0 nm gold nanoparticles) stood at 8570000 cfu/ml. Further, the “kills of the organism (in words)” value in test [5] is on record as “significant kills of the organism only at a concentration of 2.0 μm”.
For the molecule `CN(C)c1ccc2nc3ccc(=[N+](C)C)cc-3sc2c1` [Methylene blue, methylene blue], the “effectiveness of combination” value in test [1] (20 mM with 2 nm gold nanoparticles at 4×10^11 to 4×10^13 particles/ml) and in test [1] (20 mM with 15 nm gold nanoparticles at 1×10^13 to 1×10^15 particles/ml) was “particularly effective” throughout. Also, the “Result (% kill class)” value in test [1] (Example 5, photosensitiser 20 mM, gold nanoparticles 15 nm, 1 × 10^13 particles/ml, fibre optic white light 30 seconds) was “**** (99-100% kill)”; in test [1] (Example 5, photosensitiser 20 mM, gold nanoparticles 15 nm, 1 × 10^14 particles/ml, fibre optic white light 30 seconds) it was “**** (99-100% kill)”; in test [1] (Example 5, photosensitiser 20 mM, gold nanoparticles 15 nm, 1 × 10^15 particles/ml, fibre optic white light 30 seconds), “**** (99-100% kill)”; in test [1] (Example 6, photosensitiser 20 mM, gold nanoparticles 2 nm, 4 × 10^11 particles/ml, fibre optic white light 30 seconds) it was “**** (99-100% kill)”; in test [1] (Example 6, photosensitiser 20 mM, gold nanoparticles 2 nm, 4 × 10^12 particles/ml, fibre optic white light 30 seconds), “**** (99-100% kill)”; in test [1] (Example 6, photosensitiser 20 mM, gold nanoparticles 2 nm, 4 × 10^13 particles/ml, fibre optic white light 30 seconds), “**** (99-100% kill)”. Moreover, the “effect of diluting the gold nanoparticles on killing of S. aureus” value in test [1] (Example 6, MB 20 μM) is listed as “enhanced the killing of S. aureus slightly”.
